Measured values from US20260000698A1 (priority 2022, published 2026).
Marks after values point to notes of the source that are not given here.

Tests used:
G9a = molecular target: T1, G9a (Homo sapiens, UniProt Q96KQ7); assay: Human MTase screening: G9a; type: biochemical
T1 construct: purchased BPS Bioscience
T1 sequence (Q96KQ7 1-1210): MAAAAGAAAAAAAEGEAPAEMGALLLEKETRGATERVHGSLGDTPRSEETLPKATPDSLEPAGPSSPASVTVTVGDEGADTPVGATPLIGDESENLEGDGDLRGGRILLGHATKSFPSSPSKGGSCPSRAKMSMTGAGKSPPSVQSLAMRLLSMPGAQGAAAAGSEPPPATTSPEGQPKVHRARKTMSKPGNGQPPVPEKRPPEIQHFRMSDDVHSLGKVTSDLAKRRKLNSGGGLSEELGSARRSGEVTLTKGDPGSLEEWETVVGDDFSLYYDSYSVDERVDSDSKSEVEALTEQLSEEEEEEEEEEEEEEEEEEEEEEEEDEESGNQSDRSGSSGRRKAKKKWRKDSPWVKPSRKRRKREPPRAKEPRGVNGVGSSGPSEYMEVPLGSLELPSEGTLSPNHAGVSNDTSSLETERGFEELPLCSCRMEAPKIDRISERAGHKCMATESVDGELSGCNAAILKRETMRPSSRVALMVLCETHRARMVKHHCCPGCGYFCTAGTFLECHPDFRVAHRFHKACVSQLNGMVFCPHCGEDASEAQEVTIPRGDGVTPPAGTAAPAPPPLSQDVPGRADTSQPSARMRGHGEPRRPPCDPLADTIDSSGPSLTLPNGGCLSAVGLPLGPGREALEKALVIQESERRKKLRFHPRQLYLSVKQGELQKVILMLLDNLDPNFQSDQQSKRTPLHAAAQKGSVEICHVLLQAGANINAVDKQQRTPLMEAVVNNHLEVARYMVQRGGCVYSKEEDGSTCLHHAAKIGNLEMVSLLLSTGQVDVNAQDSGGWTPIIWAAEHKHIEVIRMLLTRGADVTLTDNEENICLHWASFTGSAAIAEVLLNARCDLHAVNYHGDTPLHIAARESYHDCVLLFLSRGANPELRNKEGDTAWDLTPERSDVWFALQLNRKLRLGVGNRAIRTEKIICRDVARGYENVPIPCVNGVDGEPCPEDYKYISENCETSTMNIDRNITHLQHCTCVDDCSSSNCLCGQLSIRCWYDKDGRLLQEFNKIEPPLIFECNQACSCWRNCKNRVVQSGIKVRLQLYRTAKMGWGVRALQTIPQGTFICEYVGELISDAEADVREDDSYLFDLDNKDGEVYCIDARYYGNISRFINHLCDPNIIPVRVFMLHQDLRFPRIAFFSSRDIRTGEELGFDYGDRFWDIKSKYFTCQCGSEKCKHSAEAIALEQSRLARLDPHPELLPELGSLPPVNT
Procedure: (§1) Assay conditions. The human methyltransferase inhibition assays were performed at BPS Bioscience (San Diego, CA, USA). All of the enzymatic reactions were conducted in duplicate at room temperature for 60-960 min in a 50 μL mixture containing proper methyltransferase assay buffer, S-adenosylmethionine (SAM), enzyme, and the test compound. These 50 μL reactions were carried out in wells of a substrate pre-coated plate. First, enzyme and inhibitor were added to assay wells and preincubated for 30 min at room temperature, then SAM was added to start the reaction. Final DMSO concentration was 1% in all reactions.
(§2) After enzymatic reactions, the reaction mixtures were discarded and each of the wells was washed three times with TBST buffer, and slowly shaken with Blocking Buffer for 10 min. Wells were emptied, and 100 μL of diluted primary antibody was added. The plate was then slowly shaken for 60 minutes at room temperature. […] Immediately, the luminescence of the samples was measured in a BioTek Synergy™ 2 (Winooski, VT, USA) microplate reader using Gen5 software.
(§3) Data analysis. […] The luminescence data/alpha counts were analyzed and compared. […] The percent activity in the presence of each compound was calculated according to the following equation: % activity=(C−C0)/(Ce−C0), where C=the luminescence/alpha counts in the presence of the compound.

DNMT3A/DNMT3L = molecular target: T2, DNMT3A/DNMT3L (Homo sapiens, UniProt Q9Y6K1); assay: Human MTase screening: DNMT3A/DNMT3L; type: biochemical
T2 construct: purchased BPS Bioscience
T2 sequence (Q9Y6K1 whole entry, looked up): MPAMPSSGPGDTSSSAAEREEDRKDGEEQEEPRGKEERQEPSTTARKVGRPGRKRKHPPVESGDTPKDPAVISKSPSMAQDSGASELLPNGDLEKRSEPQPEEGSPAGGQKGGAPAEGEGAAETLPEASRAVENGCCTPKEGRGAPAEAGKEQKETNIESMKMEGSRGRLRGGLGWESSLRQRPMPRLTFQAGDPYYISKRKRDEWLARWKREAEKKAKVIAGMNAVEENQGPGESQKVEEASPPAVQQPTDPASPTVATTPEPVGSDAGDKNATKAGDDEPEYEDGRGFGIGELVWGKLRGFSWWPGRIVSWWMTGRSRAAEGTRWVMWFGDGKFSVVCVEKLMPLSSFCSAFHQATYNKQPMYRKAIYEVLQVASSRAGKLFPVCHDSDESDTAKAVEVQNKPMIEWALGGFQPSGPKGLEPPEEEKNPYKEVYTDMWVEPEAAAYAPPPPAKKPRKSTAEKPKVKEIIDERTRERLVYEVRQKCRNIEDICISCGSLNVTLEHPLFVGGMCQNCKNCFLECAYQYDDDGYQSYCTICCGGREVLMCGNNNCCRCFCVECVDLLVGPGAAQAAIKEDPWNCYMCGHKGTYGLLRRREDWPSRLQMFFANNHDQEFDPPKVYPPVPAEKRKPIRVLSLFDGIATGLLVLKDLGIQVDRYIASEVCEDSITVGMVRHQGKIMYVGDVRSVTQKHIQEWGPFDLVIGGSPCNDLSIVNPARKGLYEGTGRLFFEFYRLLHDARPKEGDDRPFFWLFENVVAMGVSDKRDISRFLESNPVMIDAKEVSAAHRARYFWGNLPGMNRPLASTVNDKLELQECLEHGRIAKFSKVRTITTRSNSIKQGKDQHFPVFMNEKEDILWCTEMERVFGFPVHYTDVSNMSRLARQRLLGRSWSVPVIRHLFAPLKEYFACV
T2 sequence (Q9UJW3 whole entry partner): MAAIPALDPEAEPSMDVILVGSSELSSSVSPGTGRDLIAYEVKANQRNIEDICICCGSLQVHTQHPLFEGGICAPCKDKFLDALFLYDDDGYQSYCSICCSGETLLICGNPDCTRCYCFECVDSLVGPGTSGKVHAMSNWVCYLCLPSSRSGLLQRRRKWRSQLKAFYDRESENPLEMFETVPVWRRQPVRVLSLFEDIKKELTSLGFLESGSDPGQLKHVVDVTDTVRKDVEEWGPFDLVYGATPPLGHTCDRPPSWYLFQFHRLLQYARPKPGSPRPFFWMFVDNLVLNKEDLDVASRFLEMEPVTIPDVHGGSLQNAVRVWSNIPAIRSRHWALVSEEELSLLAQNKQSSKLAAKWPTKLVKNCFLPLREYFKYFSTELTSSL
Procedure: as §1, §2, §3

[1] = Plasma stability assay, mouse plasma; type: in vitro ADME, mouse (CD-1)
Procedure: Plasma stability assay. The plasma stability assay was performed in triplicate by incubating each selected compound (1 μmol/L final concentration) in normal mouse (CD-1) or human plasma (Innovative Research; Novi, MI, USA) diluted to 80% with 0.1 mol/L potassium phosphate buffer (pH 7.4) at 37° C. At 0, 1, 3, 6, and 24 h, a 50 μL aliquot of the plasma mixture was taken and quenched with 150 μL of acetonitrile containing 0.1% formic acid. The samples were then vortexed and centrifuged at 15,000 rpm (Eppendorf centrifuge 5424R; Enfield, CT, USA) for 5 min. The supernatants were collected and analyzed by LC-MS/MS to determine the in vitro plasma half-life (t1/2).

[2] = tested on: SARS-CoV-2 isolate USA-WA1/2020; details: inhibition at 50 μM
SUV39H1 = molecular target: T3, SUV39H1 (Homo sapiens, UniProt O43463); assay: Human MTase screening: SUV39H1; type: biochemical
T3 construct: purchased BPS Bioscience
T3 sequence (O43463 1-412): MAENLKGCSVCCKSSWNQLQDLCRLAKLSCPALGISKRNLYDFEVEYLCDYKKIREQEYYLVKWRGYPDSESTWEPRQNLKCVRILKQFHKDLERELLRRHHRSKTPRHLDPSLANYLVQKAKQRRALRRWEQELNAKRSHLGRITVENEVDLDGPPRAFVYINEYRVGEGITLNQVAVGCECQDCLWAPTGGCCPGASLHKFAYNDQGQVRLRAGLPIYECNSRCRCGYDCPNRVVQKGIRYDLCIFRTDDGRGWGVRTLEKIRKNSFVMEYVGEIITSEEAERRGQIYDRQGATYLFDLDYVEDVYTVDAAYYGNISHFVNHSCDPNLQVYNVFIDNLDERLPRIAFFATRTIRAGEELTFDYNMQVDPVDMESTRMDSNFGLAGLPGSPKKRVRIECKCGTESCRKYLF
Procedure: as §1, §2, §3

METTL3/METTL14 = molecular target: T4, METTL3/METTL14 (Homo sapiens, UniProt Q86U44); assay: Human MTase screening: METTL3/METTL14; type: biochemical
T4 construct: purchased BPS Bioscience
T4 sequence (Q86U44 whole entry): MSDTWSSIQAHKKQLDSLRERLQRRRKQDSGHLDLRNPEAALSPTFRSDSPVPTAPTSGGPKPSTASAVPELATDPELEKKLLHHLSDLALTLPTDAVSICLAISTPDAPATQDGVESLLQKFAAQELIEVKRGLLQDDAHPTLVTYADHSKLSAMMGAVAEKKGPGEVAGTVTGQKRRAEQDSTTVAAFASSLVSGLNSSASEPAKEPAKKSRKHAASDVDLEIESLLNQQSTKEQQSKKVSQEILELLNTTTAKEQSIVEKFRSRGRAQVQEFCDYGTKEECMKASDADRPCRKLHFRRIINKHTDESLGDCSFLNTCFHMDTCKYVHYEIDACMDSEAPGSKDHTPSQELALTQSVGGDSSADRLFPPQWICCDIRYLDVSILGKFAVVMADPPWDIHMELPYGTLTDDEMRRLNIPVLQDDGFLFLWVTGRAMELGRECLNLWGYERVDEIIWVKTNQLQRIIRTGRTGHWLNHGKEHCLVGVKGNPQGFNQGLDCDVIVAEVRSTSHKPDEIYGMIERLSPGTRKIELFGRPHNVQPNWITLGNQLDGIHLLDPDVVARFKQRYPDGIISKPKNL
T4 sequence (Q9HCE5 whole entry partner): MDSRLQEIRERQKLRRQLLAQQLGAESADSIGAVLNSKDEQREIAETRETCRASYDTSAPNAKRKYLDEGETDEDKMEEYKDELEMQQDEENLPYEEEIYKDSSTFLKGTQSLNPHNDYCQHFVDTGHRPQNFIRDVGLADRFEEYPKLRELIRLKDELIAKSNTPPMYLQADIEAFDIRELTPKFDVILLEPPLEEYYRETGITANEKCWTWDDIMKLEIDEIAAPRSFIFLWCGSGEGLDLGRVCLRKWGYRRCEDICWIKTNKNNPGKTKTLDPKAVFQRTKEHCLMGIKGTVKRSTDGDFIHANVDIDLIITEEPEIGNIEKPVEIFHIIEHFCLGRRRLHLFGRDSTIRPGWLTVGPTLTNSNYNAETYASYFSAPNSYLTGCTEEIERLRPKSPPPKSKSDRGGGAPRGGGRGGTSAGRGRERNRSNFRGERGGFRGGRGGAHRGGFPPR
Procedure: as §1, §2, §3

## Nc1ncnc2c1ncn2[C@@H]1O[C@H](CNS(=O)(=O)c2ccc3ccccc3c2)[C@@H](O)[C@H]1O [Compound 3, N-(((2R,3S,4R,5R)-5-(6-Amino-9H-purin-9-yl)-3,4-dihydroxytetrahydrofuran-2-yl)methyl)naphthalene-2-sulfonamide]
G9a
  inhibition at 10 µM: 11%
DNMT3A/DNMT3L
  inhibition at 10 µM: 4%
[1]; mouse plasma, 37° C., n = 3
  Plasma Stability t1/2, Mouse: >24^d h
[1]; mouse, plasma
  stability in mouse plasma: remarkably stable
[2]
  EC50: NA (not active): NA^a (NA, not active, <15% inhibition at 50 μM.)
other
  stability in mouse liver S9 fractions: resistant to phase I and II transformations
SUV39H1
  inhibition at 10 µM: 11%
METTL3/METTL14
  inhibition at 10 µM: 10%
